In US20080220103A1, “METHOD FOR TREATING/CONTROLLING/KILLING FUNGI AND BACTERIA ON LIVING ANIMALS” (priority 2005, published 2008):
Values after ≈ are worked out from the molar mass of the structure shown. Values joined by “and” are separate entries in the source; they are usually repeats but may differ in a detail not shown here. Identical values can stand only once. Like-named read-outs stand apart in the source and are kept apart here.

Experiments:
[1] = test system: All bacteria (Staphylococcus species); assay: MIC, CLSI M7-A7, pooled bacteria; format: cell-based, S. aureus, S. epidermidis; details: Staphylococcus, n = 12
Protocol: (§1) Minimum Inhibitory Concentration (MIC): Minimum inhibitory concentrations of synthetic and semisynthetic and natural products against dermatophytes were determined using a modification of the Clinical Laboratory Standards Institute (CLSI, formerly National Committee of Clinical Laboratory Standards, NCCLS) M38A standard method for dermatophytes, while MIC of these agents against Candida species were determined using the CLSI M27-A2 methodology. The method used to determine the MIC against bacteria was based on the CLSI document M7-A7.
(§2) For bacterial species, the medium used to evaluate the antibacterial activity of agents and essential oils was Mueller-Hinton (Oxoid Ltd., Basingstoke, Hampshire, England). Serial dilutions of miconazole, terbinafine, and tolnaftate were prepared in a range of 0.125-64 μg/ml and serial dilutions of tea tree oil were prepared in a range of 0.0078-4 μg/ml, while those for the rest of the essential oils were prepared in a range 0.031-16 μg/ml.
(§3) In the following Tables, MIC50 and MIC90 are defined as the minimal concentrations of a compound that can inhibit 50% and 90% of the tested organisms, respectively.

C. albicans = assay: MIC, CLSI M27-A2; format: cell-based, Candida albicans
Protocol: as §1
(§4) The remaining essential oils were prepared in a dilution range of 0.03-16 μg/ml. For Candida the MIC was read at 24 hours and defined as the lowest concentration to inhibit 50% of fungal growth as compared to the growth control (Table 4).

All yeasts = assay: MIC, CLSI M27-A2, pooled yeasts; format: cell-based, C. albicans, C. parapsilosis; details: n = 12
Protocol: as §1, §4, §3

C. parapsilosis = assay: MIC, CLSI M27-A2; format: cell-based, Candida parapsilosis
Protocol: as §1, §4

All dermatophytes [2] = assay: Minimum fungicidal concentration, pooled dermatophytes; format: cell-based, E. floccosum, T. rubrum, T. mentagrophytes; details: All dermatophytes, n = 18
Protocol: (§5) Minimum fungicidal concentration (MFC): The minimum fungicidal concentrations of various agents were determined using the technique described by Canton et al. (Antimicrob Agents Chemother. 2004 8:2477-82). In that method, fungal conidia were collected following growth on potato dextrose agar (PDA) plates and were used to inoculate 96-well plates containing different concentrations of agents. Following incubation at 35° C. for 4 days (for dermatophytes) or 24 hours (for yeast), wells showing no visible growth were cultured to determine the MFC (defined as the lowest concentration of a given agent that kills>99.999% of fungal conidia or spores). The MFC value represents the level of the agent at which spores or conidia were killed.
as §3

S. epidermidis = assay: MIC, CLSI M7-A7, Mueller-Hinton; format: cell-based; details: Staphylococcus epidermidis
Protocol: as §1, §2

S. aureus = assay: MIC, CLSI M7-A7, Mueller-Hinton; format: cell-based, Staphylococcus aureus; details: for MIC Range: n = 6 printed
Protocol: as §1, §2

T. mentagrophytes [3] = assay: Minimum fungicidal concentration (Canton et al.); format: cell-based, Trichophyton mentagrophytes; details: for MFC: Trichophyton mentagrophytes
Protocol: as §5

T. rubrum = assay: MIC, modified CLSI M38A broth dilution; format: cell-based, Trichophyton rubrum
Protocol: as §1
(§6) For dermatophytes, serial dilutions of terbinafine, tolnaftate were prepared in a range of 0.004-2 μg/ml, while for miconazole concentrations ranged between 0.015-8 μg/ml. Finally, for essential oils, the concentrations tested were between 0.03-16 μg/ml. The only exception was tea tree oil where dilutions were prepared in a range of 0.0078-4 μg/ml. The MIC was read at 4 days post inoculation and defined as the lowest concentration of an agent to inhibit 80% of fungal growth as compared to the growth control (Table 2).

All dermatophytes [4] = assay: MIC, modified CLSI M38A, pooled dermatophytes; format: cell-based, E. floccosum, T. rubrum, T. mentagrophytes
Protocol: as §1, §6, §3

T. mentagrophytes [5] = assay: MIC, modified CLSI M38A broth dilution; format: cell-based, Trichophyton mentagrophytes
Protocol: as §1, §6

E. floccosum = assay: Minimum fungicidal concentration (Canton et al.); format: cell-based, Epidermophyton floccosum; details: for MFC: Epidermophyton floccosum
Protocol: as §5

[6] = Candida albicans, C. albicans, n = 6
[7] = Lodderomyces parapsilosis, C. parapsilosis, n = 6
[8] = Staphylococcus aureus, S. aureus
[9] = Trichophyton rubrum, T. rubrum, n = 6
[10] = Trichophyton mentagrophytes, T. mentagrophytes, n = 6

- MIC50 [1]: > 64 µg/mL
- MIC90 [1]: > 64 µg/mL
- MIC (C. albicans; C. albicans strain 8280 (multi-resistant)): >64 µg/mL
- MIC Range (C. albicans; C. albicans, n = 6): > 64 µg/mL
- MIC (C. albicans; Candida albicans, 24 h, C. albicans strain 1740, 50% inhibition, 24 hours, read-out: MIC): > 64 µg/mL
- MIC (C. albicans; Candida albicans, C. albicans strain 2108, read-out: MIC): 64 µg/mL (≈ 208 µM)
- MIC (C. albicans; Candida albicans, C. albicans strain 2153, read-out: MIC): > 64 µg/mL
- MIC (C. albicans; Candida albicans, C. albicans strain 8280 (multi-resistant), read-out: MIC): > 64 µg/mL
- MIC (C. albicans; Candida albicans, C. albicans strain 8283, read-out: MIC): > 64 µg/mL
- MIC (C. albicans; Candida albicans, C. albicans strain 8364, read-out: MIC): > 64 µg/mL
- MIC50 (C. albicans; [6]): > 64 µg/mL
- MIC90 (C. albicans; [6]): > 64 µg/mL
- MIC50 (All yeasts): 16 µg/mL (≈ 52 µM)
- MIC90 (All yeasts): > 64 µg/mL
- MIC Range (C. parapsilosis; C. parapsilosis, n = 6): 0.5 to 16 µg/mL
- MIC (C. parapsilosis; Lodderomyces parapsilosis, C. parapsilosis strain 7629): 0.5 µg/mL (≈ 1.63 µM)
- MIC (C. parapsilosis; Lodderomyces parapsilosis, C. parapsilosis strain 7668): 8 µg/mL (≈ 26 µM)
- MIC (C. parapsilosis; Lodderomyces parapsilosis, C. parapsilosis strain 7672): 8 µg/mL (≈ 26 µM)
- MIC (C. parapsilosis; Lodderomyces parapsilosis, C. parapsilosis strain 7995): 8 µg/mL (≈ 26 µM)
- MIC (C. parapsilosis; Lodderomyces parapsilosis, C. parapsilosis strain 8148): 8 µg/mL (≈ 26 µM)
- MIC (C. parapsilosis; Lodderomyces parapsilosis, C. parapsilosis strain 8442): 16 µg/mL (≈ 52 µM)
- MIC (C. parapsilosis; Lodderomyces parapsilosis, C. parapsilosis, the other isolates (not #7629)): 8 to 16 µg/mL (≈ 26 to 52 µM)
- MIC50 (C. parapsilosis; [7]): 8 µg/mL (≈ 26 µM)
- MIC90 (C. parapsilosis; [7]): 8 µg/mL (≈ 26 µM)
- MIC (S. epidermidis; S. epidermidis strain 8472, read-out: MIC): 2 µg/mL (≈ 6.51 µM)
- MIC (S. epidermidis; S. epidermidis strain 8473, read-out: MIC): 16 µg/mL (≈ 52 µM)
- MIC (S. epidermidis; S. epidermidis strain 8474, read-out: MIC): 2 µg/mL (≈ 6.51 µM)
- MIC (S. epidermidis; S. epidermidis strain 8475, read-out: MIC): > 64 µg/mL
- MIC (S. epidermidis; S. epidermidis strain 8476, read-out: MIC): > 64 µg/mL
- MIC (S. epidermidis; S. epidermidis strain 8477, read-out: MIC): > 64 µg/mL
- MIC (S. epidermidis; S. epidermidis, two strains, read-out: MIC values): 2 µg/mL (≈ 6.51 µM)
- MIC50 (S. epidermidis; S. epidermidis, n = 6): 16 µg/mL (≈ 52 µM)
- MIC90 (S. epidermidis; S. epidermidis, n = 6): > 64 µg/mL
- MIC (S. aureus; S. aureus strain 733): >64 µg/mL
- MIC (S. aureus; S. aureus strain 734): >64 µg/mL
- MIC (S. aureus; S. aureus strain 8470): >64 µg/mL
- MIC Range (S. aureus; S. aureus, listed as TOLNAFTATE): >64 µg/mL
- MIC Range (S. aureus; S. aureus, listed as tolnaftate): > 64 µg/mL
- MIC50 (S. aureus; [8]): > 64 µg/mL
- MIC90 (S. aureus; [8]): > 64 µg/mL
- MIC (S. aureus; Staphylococcus aureus, S. aureus strain 730, 80% inhibition, 16 h, read-out: MIC): > 64 µg/mL
- MIC (S. aureus; Staphylococcus aureus, S. aureus strain 732, read-out: MIC): > 64 µg/mL
- MIC Range (T. rubrum; T. rubrum, n = 6): 0.008 to 0.015 µg/mL
- MIC (T. rubrum; Trichophyton rubrum, T. rubrum strain 1967): 0.015 µg/mL (≈ 0.0488 µM)
- MIC (T. rubrum; Trichophyton rubrum, T. rubrum strain 2098): 0.015 µg/mL (≈ 0.0488 µM)
- MIC (T. rubrum; Trichophyton rubrum, T. rubrum strain 2246): 0.008 µg/mL (≈ 0.026 µM)
- MIC (T. rubrum; Trichophyton rubrum, T. rubrum strain 8063): 0.008 µg/mL (≈ 0.026 µM)
- MIC (T. rubrum; Trichophyton rubrum, T. rubrum strain 8071): 0.015 µg/mL (≈ 0.0488 µM)
- MIC (T. rubrum; Trichophyton rubrum, T. rubrum strain 8092): 0.015 µg/mL (≈ 0.0488 µM)
- MIC50 (T. rubrum; [9]): 0.015 µg/mL (≈ 0.0488 µM)
- MIC90 (T. rubrum; [9]): 0.015 µg/mL (≈ 0.0488 µM)
- MIC50 (All dermatophytes [4]; n = 18): 0.06 µg/mL (≈ 0.195 µM)
- MIC90 (All dermatophytes [4]; n = 18): 0.125 µg/mL (≈ 0.407 µM)
- MIC Range (All dermatophytes [4]; n = 18, listed as tolnaftate): 0.008 to 0.125 µg/mL
- MIC Range (T. mentagrophytes [5]; T. mentagrophytes, n = 6): 0.008 to 0.125 µg/mL
- MIC (T. mentagrophytes [5]; Trichophyton mentagrophytes, T. mentagrophytes strain 1720): 0.008 µg/mL (≈ 0.026 µM)
- MIC (T. mentagrophytes [5]; Trichophyton mentagrophytes, T. mentagrophytes strain 2124): 0.06 µg/mL (≈ 0.195 µM)
- MIC (T. mentagrophytes [5]; Trichophyton mentagrophytes, T. mentagrophytes strain 2125): 0.06 µg/mL (≈ 0.195 µM)
- MIC (T. mentagrophytes [5]; Trichophyton mentagrophytes, T. mentagrophytes strain 2126): 0.004 µg/mL (≈ 0.013 µM)
- MIC (T. mentagrophytes [5]; Trichophyton mentagrophytes, T. mentagrophytes strain 2127): 0.06 µg/mL (≈ 0.195 µM)
- MIC (T. mentagrophytes [5]; Trichophyton mentagrophytes, T. mentagrophytes strain 2128): 0.125 µg/mL (≈ 0.407 µM)
- MIC50 (T. mentagrophytes [5]; [10]): 0.06 µg/mL (≈ 0.195 µM)
- MIC90 (T. mentagrophytes [5]; [10]): 0.125 µg/mL (≈ 0.407 µM)
Compound: Cc1cccc(N(C)C(=S)Oc2ccc3ccccc3c2)c1 [Tolnaftate, tolnaftate]
- MFC Range (All dermatophytes [2]): 0.06 to 1.0 µg/mL and 0.06 to 1 µg/mL
- MFC Range (All dermatophytes [2]; listed as tolnaftate): 0.06 to 0.125 µg/mL
- MFC (All dermatophytes [2]; read-out: MFC, row MIC50): 0.125 µg/mL (≈ 0.407 µM)
- MFC (All dermatophytes [2]; read-out: MFC, row MIC90): 1 µg/mL (≈ 3.25 µM)
- MFC range (row MIC Range) (T. mentagrophytes [3]; T. mentagrophytes, n = 6): 0.5 to 1 µg/mL
- MFC (T. mentagrophytes [3]; T. mentagrophytes strain 2124, read-out: MFC): 0.5 µg/mL (≈ 1.63 µM)
- MFC (T. mentagrophytes [3]; T. mentagrophytes strain 2125, read-out: MFC): 0.5 µg/mL (≈ 1.63 µM)
- MFC (T. mentagrophytes [3]; T. mentagrophytes strain 2127, read-out: MFC): 1 µg/mL (≈ 3.25 µM)
- MFC (T. mentagrophytes [3]; T. mentagrophytes strain 2128, read-out: MFC): 1 µg/mL (≈ 3.25 µM)
- MFC (T. mentagrophytes [3]; T. mentagrophytes, n = 6, read-out: MFC, row MIC50): 0.5 µg/mL (≈ 1.63 µM)
- MFC (T. mentagrophytes [3]; T. mentagrophytes, n = 6, read-out: MFC, row MIC90): 1 µg/mL (≈ 3.25 µM)
- MFC range (row MIC Range) (E. floccosum; E. floccosum, n = 6): 0.25 to 0.5 µg/mL
- MFC (E. floccosum; E. floccosum strain 1666, read-out: MFC): 0.25 µg/mL (≈ 0.813 µM)
- MFC (E. floccosum; E. floccosum strain 1798, read-out: MFC): 0.25 µg/mL (≈ 0.813 µM)
- MFC (E. floccosum; E. floccosum strain 1925, read-out: MFC): 0.25 µg/mL (≈ 0.813 µM)
- MFC (E. floccosum; E. floccosum strain 1926, read-out: MFC): 0.5 µg/mL (≈ 1.63 µM)
- MFC (E. floccosum; E. floccosum strain 1961, read-out: MFC): 0.5 µg/mL (≈ 1.63 µM)
- MFC (E. floccosum; E. floccosum strain 2165, read-out: MFC): 0.25 µg/mL (≈ 0.813 µM)
- MFC (E. floccosum; E. floccosum, n = 6, read-out: MFC, row MIC50): 0.25 µg/mL (≈ 0.813 µM)
- MFC (E. floccosum; E. floccosum, n = 6, read-out: MFC, row MIC90): 0.5 µg/mL (≈ 1.63 µM)
